The source of these data is the supplement of paper PMC10307832.

Experiment in all cases: relative viability (nuclei count vs DMSO), 5 days (fraction); higher = more cells survive
Compound in the assay “Bemcentinib + Pictilisib”: Nc1nc(Nc2ccc3c(c2)CC[C@@H](N2CCCC2)CC3)nn1-c1cc2c(nn1)-c1ccccc1CCC2 [Bemcentinib] + CS(=O)(=O)N1CCN(Cc2cc3nc(-c4cccc5[nH]ncc45)nc(N4CCOCC4)c3s2)CC1 [Pictilisib] (partner 1 µM)
The method in brief:
(§1)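 For relative viability, nuclei counts in treated wells were divided by those in vehicle wells. Lung cancer cell lines had been pin-tool dosed in 1536-well plates the day after seeding and cultured for 5 days, then fixed and stained in one step (final 0.05% Triton X-100, 1% formaldehyde, 1 ug/ml Hoechst) and imaged at 4×. Doses were one drug alone or a fixed anchor-drug dose plus five library-drug doses (not always all listed) in √10 steps, and values are duplicate-plate medians.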

Compound in assay [1]: CC1=CC=C(C=C1)C(=O)CN2C3=C(CCCC3)SC2=N [Pifithrin_alpha] + CS(=O)(=O)N1CCN(Cc2cc3nc(-c4cccc5[nH]ncc45)nc(N4CCOCC4)c3s2)CC1 [Pictilisib] (partner 1 µM)
The method in brief: as §1

Compound in the assay “Axitinib + Vorinostat”: CNC(=O)c1ccccc1Sc1ccc2c(/C=C/c3ccccn3)n[nH]c2c1 [Axitinib] + O=C(CCCCCCC(=O)Nc1ccccc1)NO [Vorinostat] (partner 1 µM)
A digest of the protocol:
as §1

Compound in the assay “Axitinib + Linsitinib”: CNC(=O)c1ccccc1Sc1ccc2c(/C=C/c3ccccn3)n[nH]c2c1 [Axitinib] + C[C@]1(O)C[C@@H](c2nc(-c3ccc4ccc(-c5ccccc5)nc4c3)c3c(N)nccn32)C1 [Linsitinib] (partner 1 µM)
A digest of the protocol: as §1

For NCI-H650, the relative viability came to 0.835 in the assay with Bemcentinib + Pictilisib (first compound 0.04 µM); 1.08 with Bemcentinib + Pictilisib (first compound 0.1265 µM); 0.887 with Bemcentinib + Pictilisib (first compound 0.4 µM); 0.766 with Bemcentinib + Pictilisib (first compound 1.265 µM); 0.827 in the assay with Bemcentinib + Pictilisib (first compound 4 µM); 0.91 in assay [1] (first compound 3.162 µM). For the same cell line, the relative viability in assay [1] (first compound 10 µM) stood at 0.873; in assay [1] (first compound 31.62 µM), 0.58; in assay [1] (first compound 100 µM), 0.763; with Axitinib + Vorinostat (first compound 0.005 µM), 0.371; with Axitinib + Vorinostat (first compound 0.01581 µM), 0.452; in the assay with Axitinib + Vorinostat (first compound 0.05 µM), 0.448. Also, the relative viability came out at 0.459 with Axitinib + Vorinostat (first compound 0.1581 µM); 0.366 in the assay with Axitinib + Vorinostat (first compound 0.5 µM); 0.969 in the assay with Axitinib + Linsitinib (first compound 0.005 µM); 0.866 with Axitinib + Linsitinib (first compound 0.01581 µM); 0.916 with Axitinib + Linsitinib (first compound 0.05 µM); 0.713 in the assay with Axitinib + Linsitinib (first compound 0.1581 µM). Moreover, the relative viability with Axitinib + Linsitinib (first compound 0.5 µM) worked out at 0.759.
